In PMC9681850, “Structural basis of synthetic agonist activation of the nuclear receptor REV-ERB” (Nature Communications, 2022):
Where two headings read alike, the source gives them in different places.

Experiments:
[1] = molecular target: T1, full length human REV-ERBα (Homo sapiens, UniProt P20393); test: cell-based two-hybrid luciferase reporter assay (REV-ERBα-FL/GAL4-DBD + NCoR-Vp16, HEK UAS-luc cells); details: HEK293 UAS-luc cells
T1 construct: expressed in transfected cells; host or cells: HEK293 cells with stably integrated GAL4-UAS luciferase reporter

[2] = tissue exposure following i.p. administration; type: in vivo, C57Bl/6 J mice; details: mice
Procedure: To test the efficacy of STL1267 in vivo, we began by assessing tissue exposure following i.p. administration. We administered vehicle or 50 mg/kg of STL1267 via intraperitoneal injection to C57Bl/6 J mice. The mice were sacrificed at four subsequent time points over the next 12 h.
All in vivo studies were performed using the ARRIVE guidelines and approved by the Washington University IACUC. C57Bl/6J mice (male; 6–8 weeks of age) maintained at 12:12 h light;dark, 22 °C, 40–60% humidity. Mice were injected IP with 50 mg/kg STL1267 (n = 3–4 per group) or vehicle (10% DMSO, 12% TWEEN80, PBS) (n = 3–4 per group). Mice were weighed immediately following the injection and were weighed again immediately after sacrifice. Mice were fasted started at the time of injection. For tissue collection, three STL1267-injected mice were sacrificed at 1 h post-injection, and three more were sacrificed at 3 h post-injection. At 8 h and 12 h post-injection, six mice from each treatment group were taken down and tissue was collected. The tissues collected at all four time points include plasma, white adipose tissue, brain, liver, and skeletal muscle (quadriceps). […] Analytes were extracted using protein precipitation techniques with acetonitrile and samples were then analyzed using a SCIEX Triple Quad 5500+ system – QTRAP ready linked to an ExionLC AD-HPLC system. […]

FXR = FXR (Homo sapiens, UniProt Q96RI1); test: Gal4-UAS reporter assay for nuclear receptor specificity; type: cell-based; details: Gal4 DBD-NR, HEK293 cells, 10 µM
From the text: (§1) We assessed the specificity of STL1267 using both in house nuclear receptor Gal4-NR reporter assays and the NIMH Psychoactive Drug Screening Program (PDSP) assays. We assessed the specificity of STL1267 in the PDSP’s radioligand displacement assays, screening for binding to off-target GPCRs, ion channels, transporters, and other drug targets (Table S1). Of the 43 targets assessed in this panel, we observed no detectable binding in 41 of them. […] Additional assessment in serotonin transporter and kappa opioid receptor activity in a functional assay may be warranted to determine absolute specificity.
(§2) Receptor RLBA Ki Receptor activity […]
(§3) HEK293 cells transfected with Gal4-UAS l uc i f eras e and […]

GR = GR (Homo sapiens, UniProt P04150); test: as above; type: cell-based; details: Gal4 DBD-NR, HEK293 cells, 10 µM
From the text: as §1, §2, §3

REV-ERBα LBD = molecular target: T2, REV-ERBα LBD (Homo sapiens, UniProt P20393); test: FRET assay of NCoR ID1 CoRNR box recruitment; type: biochemical; design: agonist-dependent recruitment of NCoR ID1 CoRNR box to the REV-ERBα-LBD
T2 sequence (P20393 284-614 limits assumed): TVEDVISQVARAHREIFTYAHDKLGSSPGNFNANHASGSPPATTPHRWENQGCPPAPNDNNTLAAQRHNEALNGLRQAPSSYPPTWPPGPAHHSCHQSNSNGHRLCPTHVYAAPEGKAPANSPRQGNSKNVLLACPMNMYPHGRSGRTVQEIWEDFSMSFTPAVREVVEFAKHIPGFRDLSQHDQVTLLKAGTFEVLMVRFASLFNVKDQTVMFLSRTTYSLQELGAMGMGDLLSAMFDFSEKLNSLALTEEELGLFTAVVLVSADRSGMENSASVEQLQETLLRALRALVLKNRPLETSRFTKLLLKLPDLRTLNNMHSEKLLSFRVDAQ
Procedure: We noted a recent patent that described a series of REV-ERB agonists (6-substituted[1,2,4]triazolo[4,3-b]pyridazines) in assays that detected the ability of small molecules to enhance the interaction of REV-ERBα with NCoR either in biochemical or cell-based assays.
Histidine tagged REV-ERBα/β complexed with heme was added to each well to a final concentration of 4 nM. NCoR ID1 fluorescein (ref#PV4622, Batch# 1797468C) was added to each well to a final concentration of 150 nM, and terbium anti-histidine (ref#PV5895, batch 1730002B) was added to a final concentration of 1 nM. Mixture was incubated at room temperature on an orbital shaker for 1 h at 200 rpm. The lanthascreen assay protocol (Dual PMT, excitation 340 nm, dual emission 495/520, Gain 110/110) was used to read the plate.

T1 sequence (P20393 whole entry, the tested form may be a part): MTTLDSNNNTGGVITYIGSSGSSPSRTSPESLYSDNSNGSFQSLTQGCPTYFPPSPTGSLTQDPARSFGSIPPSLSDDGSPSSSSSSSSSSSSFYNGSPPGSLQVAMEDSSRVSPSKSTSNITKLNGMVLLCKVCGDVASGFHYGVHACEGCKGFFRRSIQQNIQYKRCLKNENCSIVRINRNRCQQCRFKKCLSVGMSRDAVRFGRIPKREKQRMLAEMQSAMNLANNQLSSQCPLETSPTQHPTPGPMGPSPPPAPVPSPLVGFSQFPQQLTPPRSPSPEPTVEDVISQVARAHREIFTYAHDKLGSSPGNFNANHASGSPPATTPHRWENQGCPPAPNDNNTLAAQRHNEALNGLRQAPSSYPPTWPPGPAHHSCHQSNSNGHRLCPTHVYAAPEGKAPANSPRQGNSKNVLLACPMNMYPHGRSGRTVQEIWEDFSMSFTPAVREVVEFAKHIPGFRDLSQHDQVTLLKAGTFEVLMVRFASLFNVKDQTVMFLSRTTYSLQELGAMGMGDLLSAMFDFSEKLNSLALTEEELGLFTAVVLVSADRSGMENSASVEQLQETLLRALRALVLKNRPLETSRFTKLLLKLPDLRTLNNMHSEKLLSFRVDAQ
T1 sequence (O75376 whole entry partner, the tested form may be a part): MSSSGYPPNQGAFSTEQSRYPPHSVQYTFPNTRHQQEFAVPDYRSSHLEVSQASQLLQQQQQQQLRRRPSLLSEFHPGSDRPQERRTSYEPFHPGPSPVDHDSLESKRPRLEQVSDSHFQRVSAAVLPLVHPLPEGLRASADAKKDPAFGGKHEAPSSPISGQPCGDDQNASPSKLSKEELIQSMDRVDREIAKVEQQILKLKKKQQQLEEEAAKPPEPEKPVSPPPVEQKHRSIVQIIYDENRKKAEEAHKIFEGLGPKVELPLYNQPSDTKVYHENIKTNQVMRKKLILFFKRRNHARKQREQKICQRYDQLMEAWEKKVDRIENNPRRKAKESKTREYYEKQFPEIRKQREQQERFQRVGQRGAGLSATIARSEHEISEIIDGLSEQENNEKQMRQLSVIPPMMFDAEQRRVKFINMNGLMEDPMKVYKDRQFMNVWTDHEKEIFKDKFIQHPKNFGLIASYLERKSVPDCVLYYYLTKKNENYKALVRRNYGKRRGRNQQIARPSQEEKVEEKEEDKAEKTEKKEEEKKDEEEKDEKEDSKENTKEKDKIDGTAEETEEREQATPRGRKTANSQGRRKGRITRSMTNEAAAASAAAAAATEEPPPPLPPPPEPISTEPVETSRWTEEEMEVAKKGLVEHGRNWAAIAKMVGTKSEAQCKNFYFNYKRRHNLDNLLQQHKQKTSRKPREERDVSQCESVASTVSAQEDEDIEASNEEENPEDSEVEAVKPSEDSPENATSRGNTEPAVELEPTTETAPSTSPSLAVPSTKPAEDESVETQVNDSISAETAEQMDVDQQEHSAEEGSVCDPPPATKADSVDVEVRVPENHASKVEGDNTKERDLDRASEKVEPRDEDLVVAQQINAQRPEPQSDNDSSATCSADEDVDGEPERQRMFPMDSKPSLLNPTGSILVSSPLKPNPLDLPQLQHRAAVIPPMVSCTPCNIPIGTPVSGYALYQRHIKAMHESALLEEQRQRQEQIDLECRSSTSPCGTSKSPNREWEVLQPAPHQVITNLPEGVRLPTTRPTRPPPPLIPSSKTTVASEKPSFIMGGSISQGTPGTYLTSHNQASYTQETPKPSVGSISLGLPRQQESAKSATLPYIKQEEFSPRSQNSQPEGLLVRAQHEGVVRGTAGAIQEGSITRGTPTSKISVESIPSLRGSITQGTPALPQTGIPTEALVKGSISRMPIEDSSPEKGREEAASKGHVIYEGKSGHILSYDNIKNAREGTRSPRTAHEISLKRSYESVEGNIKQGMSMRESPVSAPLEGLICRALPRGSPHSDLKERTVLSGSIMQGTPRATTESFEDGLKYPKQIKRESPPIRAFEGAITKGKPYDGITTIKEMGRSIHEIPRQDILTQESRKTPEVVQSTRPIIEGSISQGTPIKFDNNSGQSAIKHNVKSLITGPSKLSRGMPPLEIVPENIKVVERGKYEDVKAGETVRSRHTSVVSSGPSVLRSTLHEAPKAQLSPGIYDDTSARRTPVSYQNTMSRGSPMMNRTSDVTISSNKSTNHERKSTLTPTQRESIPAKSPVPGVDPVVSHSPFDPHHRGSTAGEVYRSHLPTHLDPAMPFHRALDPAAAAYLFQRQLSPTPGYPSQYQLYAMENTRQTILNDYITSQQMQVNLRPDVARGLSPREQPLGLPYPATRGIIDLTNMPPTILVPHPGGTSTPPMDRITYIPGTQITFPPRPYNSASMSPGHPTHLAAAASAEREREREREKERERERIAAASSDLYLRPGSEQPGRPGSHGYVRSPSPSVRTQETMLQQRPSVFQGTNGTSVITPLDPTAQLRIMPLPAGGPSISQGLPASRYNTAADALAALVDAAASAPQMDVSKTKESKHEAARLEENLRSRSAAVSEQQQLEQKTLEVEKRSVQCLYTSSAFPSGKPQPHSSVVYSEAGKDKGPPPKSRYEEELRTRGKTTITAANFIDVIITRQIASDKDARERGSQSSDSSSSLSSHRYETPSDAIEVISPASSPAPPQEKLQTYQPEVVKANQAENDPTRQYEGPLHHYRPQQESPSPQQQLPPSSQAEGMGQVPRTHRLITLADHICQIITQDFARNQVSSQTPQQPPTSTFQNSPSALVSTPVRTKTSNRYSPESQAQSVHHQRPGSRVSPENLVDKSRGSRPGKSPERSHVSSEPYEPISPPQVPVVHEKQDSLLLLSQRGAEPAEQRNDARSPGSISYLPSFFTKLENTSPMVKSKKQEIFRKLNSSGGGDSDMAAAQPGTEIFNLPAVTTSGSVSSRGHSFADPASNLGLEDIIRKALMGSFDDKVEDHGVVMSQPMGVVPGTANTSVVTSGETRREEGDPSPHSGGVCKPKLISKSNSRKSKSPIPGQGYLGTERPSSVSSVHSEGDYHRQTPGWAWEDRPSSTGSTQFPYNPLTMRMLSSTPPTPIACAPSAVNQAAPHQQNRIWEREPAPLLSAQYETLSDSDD
Chain of GR (P04150 524-777 limits assumed): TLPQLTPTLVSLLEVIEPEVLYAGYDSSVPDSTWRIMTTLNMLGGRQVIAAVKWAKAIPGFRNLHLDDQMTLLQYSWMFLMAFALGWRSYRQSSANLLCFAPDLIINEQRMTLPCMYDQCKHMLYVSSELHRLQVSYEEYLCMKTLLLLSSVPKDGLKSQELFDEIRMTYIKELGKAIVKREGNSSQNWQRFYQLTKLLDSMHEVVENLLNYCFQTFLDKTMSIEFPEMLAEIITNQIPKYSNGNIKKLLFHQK
Chain of FXR (Q96RI1 262-486 limits assumed): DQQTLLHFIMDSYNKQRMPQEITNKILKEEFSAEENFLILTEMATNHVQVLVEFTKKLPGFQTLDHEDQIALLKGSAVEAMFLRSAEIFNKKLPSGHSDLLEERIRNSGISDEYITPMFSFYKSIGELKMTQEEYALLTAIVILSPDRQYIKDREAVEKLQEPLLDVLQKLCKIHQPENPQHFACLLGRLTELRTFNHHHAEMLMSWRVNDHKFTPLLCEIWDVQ

With `Clc1nnc2ccc(Oc3ccccc3-c3ccccc3)nn12` [STL1267] the “maximal efficacy for recruitment of NCoR-VP16 vs. SR9009” value [1] was ~ 8 fold, the EC50 ([1]; 24 h, read-out: EC50, recruitment of NCoR-Vp16) was 1.8 µM and the half-life ([2]; male, C57Bl/6J, mouse, plasma, ip, 50 mg/kg intraperitoneal injection) was roughly 1.6 h. The “tissue distribution (brain, plasma, liver, skeletal muscle, white adipose tissue)” value ([2]; 50 mg/kg i.p.) was “localized in all the tissues collected”, the activity (FXR) was “did not detect activity” and the activity (GR) was “did not detect activity”. The “efficacy of NCoR ID1 recruitment relative to SR9009” value (REV-ERBα LBD) was “roughly double”, the “potency relative to SR9009 in the FRET assay” value (REV-ERBα LBD) was “more than ten times greater” and the EC50 (REV-ERBα LBD; REV-ERBα-LBD) was 0.13 µM. For the same molecule, the “potency relative to SR9009 in the FRET assay” value (REV-ERBα LBD; listed as 1267) was 14.6 fold.
